This note sets out measurements from paper PMC8847695 (Frontiers in Chemistry, 2022).

Holding throughout (type): binding
What all share (conditions): 1 = hit, 0 = no hit

Experiment [1] concerns the target AAK1 (121-471) (Homo sapiens, UniProt Q2M2I8). The experiment in a line: STD-NMR fragment screening, AAK1. The method, then: (§1) All fragments were stored at −20°C as solids in argon flushed glass bottles. For NMR screening, fragments were weighed and dissolved in DMSO-d6 to a stock concentration of 300 mM. Mother plates were prepared with a 100 mM concentration. From these plates, daughter plates were prepared with the fragments mixed in the plates to a concentration of 50 mM for each fragment. Daughter plates were opened a maximum of eight times. The plates were argon flushed and sealed with a HT121TS (HTA) and Foil Heat Seal (Biozym).
(§2) For long time measurements, like the protein ^1H NMR spectrum, the buffer exchange was performed twice to reduce residual buffer peaks. All experiments were performed on a Bruker Avance III HDX 700 instrument, equipped with a 5 mm Prodigy TCI cryo-probehead. For every protein, a standard ^1H NMR experiment with 1 k scans and water suppression through presaturation was performed. […] The on-resonance frequency, which was determined from the ^1H NMR spectra of the protein, was between 0.5 and 0.6 ppm; 40 ppm was used as the off-resonance frequency. For an interleaved acquisition of the on- and off-resonance, a pseudo-2D scheme was applied. The saturation was done by Gaussian pulses with a length of 50 ms and 60 dB of attenuation, with an interpulse delay of 1 ms leading to an excitation bandwidth of about 42 Hz. The screening was done with 16 scans of on- and off-resonance scans each, with a 3 s saturation time. The samples contained final concentrations of 20 µM protein, 10% (^V/V) DMSO-d6, and 1 mM of each of the two fragments. A ^1H-NMR experiment was performed for each compound to act as a reference spectrum in the STD experiments. All NMR experiments were carried out at 25°C.
(§3) Fifteen of these compounds contain the same halogen twice. No compound bears mixtures of different halogen atoms. Four proteins (AAK1, CAMK1G, IDO1, and DOT1L) were screened against this HEFLib using STD-NMR. A fragment was considered a hit if the peak intensity in the difference spectrum was three times higher than the local background noise. […] Chemical compatibility and peak complementarity were assured for these mixtures. Samples containing more than two fragments were avoided to minimize the possible target competition and to decrease the risk of fragment interactions. […] The ^1H reference NMR spectrum of the mixture is shown in red for comparison. […] As fragment mixtures can lead to competitive effects between their fragments, it is not advised to use the quantification of peak mixtures for hit ranking.

The target of experiment [2] is T1, CAMK1G (1-320) (Homo sapiens, UniProt Q96NX5).
T1 construct: made in house; host or cells: E. coli BL21 (DE3) pLysS
The experiment in a line: STD-NMR fragment screening, CAMK1G. The procedure: as §1, §2, §3

In experiment [3] the target is T2, IDO1 (1-435) (Homo sapiens, UniProt P14902).
T2 construct: His-tag of pET15b with TEV site (thrombin site replaced) (cleaved yes); made in house; host or cells: E. coli Rosetta 2 (DE3) pLysS
Nature of the experiment: STD-NMR fragment screening, IDO1. The procedure: as §1, §2, §3

Experiment [4] concerns the target T3, DOT1L (1-416) (Homo sapiens, UniProt Q8TEK3).
T3 construct: made in house; host or cells: E. coli BL21 (DE3) pLysS
The experiment in a line: STD-NMR fragment screening, DOT1L. The method, then: as §1, §2, §3

T2 sequence (P14902 whole entry): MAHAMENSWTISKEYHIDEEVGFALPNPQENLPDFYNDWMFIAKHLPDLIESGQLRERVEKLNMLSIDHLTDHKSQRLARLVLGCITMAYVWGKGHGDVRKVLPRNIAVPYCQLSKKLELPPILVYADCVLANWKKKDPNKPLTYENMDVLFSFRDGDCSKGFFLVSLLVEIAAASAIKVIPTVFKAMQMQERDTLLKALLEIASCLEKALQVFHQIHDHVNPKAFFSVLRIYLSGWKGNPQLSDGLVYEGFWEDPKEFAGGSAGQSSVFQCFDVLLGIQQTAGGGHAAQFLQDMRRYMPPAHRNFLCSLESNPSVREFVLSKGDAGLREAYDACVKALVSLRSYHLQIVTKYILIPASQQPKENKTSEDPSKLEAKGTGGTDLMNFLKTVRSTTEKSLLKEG
T1 sequence (Q96NX5 1-320): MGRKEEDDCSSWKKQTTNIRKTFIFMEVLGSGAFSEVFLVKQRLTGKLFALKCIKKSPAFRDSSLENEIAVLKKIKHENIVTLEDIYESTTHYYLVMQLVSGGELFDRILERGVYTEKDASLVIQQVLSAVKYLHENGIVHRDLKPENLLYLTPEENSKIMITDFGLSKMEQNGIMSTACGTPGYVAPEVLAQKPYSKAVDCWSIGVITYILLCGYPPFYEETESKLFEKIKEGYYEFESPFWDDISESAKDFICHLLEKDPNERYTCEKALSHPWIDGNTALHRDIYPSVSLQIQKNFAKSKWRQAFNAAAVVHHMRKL
T3 sequence (Q8TEK3 1-416): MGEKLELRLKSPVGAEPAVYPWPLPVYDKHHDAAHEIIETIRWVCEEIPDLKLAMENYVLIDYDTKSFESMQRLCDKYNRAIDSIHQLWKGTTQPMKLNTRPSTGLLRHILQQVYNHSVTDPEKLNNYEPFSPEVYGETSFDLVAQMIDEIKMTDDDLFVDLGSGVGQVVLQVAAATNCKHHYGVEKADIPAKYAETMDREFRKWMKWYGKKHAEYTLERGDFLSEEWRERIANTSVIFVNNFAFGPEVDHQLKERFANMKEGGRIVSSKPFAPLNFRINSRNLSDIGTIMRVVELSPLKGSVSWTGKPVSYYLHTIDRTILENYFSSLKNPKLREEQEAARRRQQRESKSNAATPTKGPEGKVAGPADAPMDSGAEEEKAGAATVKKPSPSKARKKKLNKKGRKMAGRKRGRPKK
Sequence of AAK1 (121-471) (Q2M2I8 46-315 limits assumed): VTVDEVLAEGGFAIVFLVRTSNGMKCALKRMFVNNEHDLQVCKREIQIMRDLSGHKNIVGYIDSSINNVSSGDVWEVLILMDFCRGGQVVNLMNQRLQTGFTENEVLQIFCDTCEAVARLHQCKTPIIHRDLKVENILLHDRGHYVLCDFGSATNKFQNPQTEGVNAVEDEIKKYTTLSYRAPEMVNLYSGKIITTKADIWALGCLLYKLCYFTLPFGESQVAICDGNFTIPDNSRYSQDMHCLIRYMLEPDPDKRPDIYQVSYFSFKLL

With `Oc1coc(O)c1Br` [Fragment B02291100], the “AAK1 (STD-NMR hit flag)” value in experiment [1] is reported as 0. The “CAMK1G (STD-NMR hit flag)” value in experiment [2] is recorded as 0. Also, in experiment [3], the “IDO1 (STD-NMR hit flag)” value is listed as 0. Further, the “DOT1L (STD-NMR hit flag)” value in experiment [4] was found to be 0.

Turning to `Cc1nc(N)nc(Cl)c1Cl` [Fragment B02291102], the “AAK1 (STD-NMR hit flag)” value in experiment [1] is 1. Besides, in experiment [2], the “CAMK1G (STD-NMR hit flag)” value worked out at 1. Also, the “IDO1 (STD-NMR hit flag)” value in experiment [3] was found to be 1. Also, in experiment [4], the “DOT1L (STD-NMR hit flag)” value is 0.

`CCn1ncc(Br)c1C(N)=O` [Fragment B02291150]: the “AAK1 (STD-NMR hit flag)” value in experiment [1] was 1. Besides, the “CAMK1G (STD-NMR hit flag)” value in experiment [2] is recorded as 1. The “IDO1 (STD-NMR hit flag)” value in experiment [3] turned out to be 0. For the same molecule, the “DOT1L (STD-NMR hit flag)” value in experiment [4] is listed as 0.

In the case of `Cc1nn(CCN)cc1Cl` [Fragment B02291152], the “AAK1 (STD-NMR hit flag)” value in experiment [1] turned out to be 0. Further, in experiment [2], the “CAMK1G (STD-NMR hit flag)” value amounted to 0. Besides, the “IDO1 (STD-NMR hit flag)” value in experiment [3] was determined as 0. Moreover, in experiment [4], the “DOT1L (STD-NMR hit flag)” value is listed as 0.

As to `Oc1ccc(Cl)cc1/C=C/C12CN3CN(CN(C3)C1)C2` [Fragment B02291153], the “AAK1 (STD-NMR hit flag)” value in experiment [1] is 0. Also, in experiment [2], the “CAMK1G (STD-NMR hit flag)” value amounted to 0. The “IDO1 (STD-NMR hit flag)” value in experiment [3] turned out to be 0. Further, the “DOT1L (STD-NMR hit flag)” value in experiment [4] was determined as 0.

On to `O=C(O)c1nn(Cn2cccn2)cc1Cl` [Fragment B02291154], for which the “AAK1 (STD-NMR hit flag)” value in experiment [1] stood at 0. The “CAMK1G (STD-NMR hit flag)” value in experiment [2] was 0. Further, in experiment [3], the “IDO1 (STD-NMR hit flag)” value came out at 0. Besides, the “DOT1L (STD-NMR hit flag)” value in experiment [4] is 0.

As to `CCn1ncc(Br)c1CNC` [Fragment B02291155], in experiment [1], the “AAK1 (STD-NMR hit flag)” value is on record as 0. In addition, the “CAMK1G (STD-NMR hit flag)” value in experiment [2] stood at 0. Further, the “IDO1 (STD-NMR hit flag)” value in experiment [3] is 0. Further, the “DOT1L (STD-NMR hit flag)” value in experiment [4] is recorded as 0.

Consider `Nc1nn(CC(=O)O)cc1Br` [Fragment B02291156], for which, in experiment [1], the “AAK1 (STD-NMR hit flag)” value is on record as 0. Further, the “CAMK1G (STD-NMR hit flag)” value in experiment [2] stood at 0. Besides, the “IDO1 (STD-NMR hit flag)” value in experiment [3] came to 0. Further, in experiment [4], the “DOT1L (STD-NMR hit flag)” value is recorded as 0.

`Brc1cccc2c1CNC2` [Fragment B02291212]: the “AAK1 (STD-NMR hit flag)” value in experiment [1] was determined as 0. Also, the “CAMK1G (STD-NMR hit flag)” value in experiment [2] amounted to 0. For the same molecule, the “IDO1 (STD-NMR hit flag)” value in experiment [3] is listed as 0. Further, the “DOT1L (STD-NMR hit flag)” value in experiment [4] was determined as 0.

On to `CS(=O)(=O)c1ccc(Cl)c(S(C)(=O)=O)c1` [Fragment B02291213], for which the “AAK1 (STD-NMR hit flag)” value in experiment [1] came to 0. In addition, the “CAMK1G (STD-NMR hit flag)” value in experiment [2] was determined as 0. The “IDO1 (STD-NMR hit flag)” value in experiment [3] amounted to 0. The “DOT1L (STD-NMR hit flag)” value in experiment [4] was 0.

With `Cn1nc(C(F)(F)F)c(CO)c1Cl` [Fragment B02291214], the “AAK1 (STD-NMR hit flag)” value in experiment [1] worked out at 0. In addition, in experiment [2], the “CAMK1G (STD-NMR hit flag)” value stood at 0. Further, the “IDO1 (STD-NMR hit flag)” value in experiment [3] was found to be 0. For the same molecule, the “DOT1L (STD-NMR hit flag)” value in experiment [4] was 0.

As to `Cn1c2nc(Cl)nc-2c(O)n(C)c1=O` [Fragment B02291216], the “AAK1 (STD-NMR hit flag)” value in experiment [1] came out at 1. In addition, in experiment [2], the “CAMK1G (STD-NMR hit flag)” value was 1. Besides, in experiment [3], the “IDO1 (STD-NMR hit flag)” value is given as 1. Besides, the “DOT1L (STD-NMR hit flag)” value in experiment [4] is 0.

On to `Nc1c(Cl)ccc2nonc12` [Fragment B02291217], for which the “AAK1 (STD-NMR hit flag)” value in experiment [1] was found to be 1. In experiment [2], the “CAMK1G (STD-NMR hit flag)” value was found to be 0. Further, the “IDO1 (STD-NMR hit flag)” value in experiment [3] amounted to 0. The “DOT1L (STD-NMR hit flag)” value in experiment [4] is listed as 0.

Regarding `Cc1c(Cl)c(C(=O)O)nn1C` [Fragment B02291218], in experiment [1], the “AAK1 (STD-NMR hit flag)” value was 0. The “CAMK1G (STD-NMR hit flag)” value in experiment [2] is listed as 0. Further, the “IDO1 (STD-NMR hit flag)” value in experiment [3] is reported as 0. The “DOT1L (STD-NMR hit flag)” value in experiment [4] stood at 0.

Consider `Nc1ncc(C(F)(F)F)cc1Cl` [Fragment B02291219], for which the “AAK1 (STD-NMR hit flag)” value in experiment [1] is reported as 1. Further, in experiment [2], the “CAMK1G (STD-NMR hit flag)” value is 1. The “IDO1 (STD-NMR hit flag)” value in experiment [3] is given as 0. The “DOT1L (STD-NMR hit flag)” value in experiment [4] is recorded as 0.

Take `O=C(O)c1cc(Cl)c[nH]1` [Fragment B02291221]: in experiment [1], the “AAK1 (STD-NMR hit flag)” value was found to be 0. In addition, the “CAMK1G (STD-NMR hit flag)” value in experiment [2] is 0. The “IDO1 (STD-NMR hit flag)” value in experiment [3] amounted to 0. For the same molecule, in experiment [4], the “DOT1L (STD-NMR hit flag)” value was found to be 0.
